The test system of assay [1] is Class I and Class II HDAC isoforms. Briefly: HDAC isoform inhibition (all Class I and Class II). It is filed as biochemical.
In assay [2] the test system is sepsis by treatment with LPS. Nature of the assay: Survival after induction of sepsis by LPS (endotoxemia). In kind it is in vivo. As for the experimental part:
At 72 hours after induction of sepsis by treatment with LPS, a subject has a 0% chance of survival. […] This remains constant through 144 hours.
Culture media was collected and analyzed by ELISA for TNFα, IL-1β and IL-6 proteins (n=3±S.D.). […] (FIG. 4).

The test system of assay [3] is RAW cells. Briefly: Cytokine mRNA expression by RT-PCR in LPS-treated RAW cells. It is filed as cell-based. The following applies: 0.1 μM for 30 min, then 100 ng/ml LPS 6 hours. On the procedure: RT-PCR was performed (30 cycles), and PCR products were analyzed on a 1% agarose gel. […] (FIG. 1)
Assay [4] has as its system inducible nitric oxide synthase (iNOS). Nature of the assay: iNOS expression by Western blot in LPS-treated RAW cells. It is filed as cell-based. The following applies: various amounts for 30 min, LPS 100 ng/ml 16 hours. On the procedure: Cell lysates were analyzed by Western blot with antibodies to the inducible nitric oxide synthase (iNOS) (above) and HuR (below) as a negative control. […] (FIG. 3).
Background: A western blot detects proteins with antibodies after separation by electrophoresis.

The test system of assay [5] is RAW cells. Nature of the assay: Secreted cytokine protein by ELISA in LPS-treated RAW cells. The following applies: 0.1 μM for 30 min, LPS 100 ng/ml for 16 hr. In kind it is cell-based. An excerpt:
Culture media was collected and analyzed by ELISA for TNFα, IL-1β and IL-6 proteins (n=3±S.D.). […] (FIG. 2).
(An ELISA detects its analyte on a solid surface through an enzyme-linked reagent.)

As to `CN(C)Cc1c(C(=O)NCCOc2ccc(C(=O)NO)cc2)oc2ccccc12` [Compound 1], in assay [1], the “inhibition of all Class I and Class II HDAC isoforms” value is “inhibits all Class I and Class II HDAC isoforms”. For the same molecule, the chances of survival in assay [2] (25 μg/gram of body weight, at 72 hours after LPS, steady through 144 hours) stood at 30%. The chances of survival in assay [2] (50 μg/gram of body weight, constant through 144 hours after LPS) amounted to 70%. Also, in assay [2] (FIG. 4 legend, dose not stated), the “increase of survival from endotoxemia” value is 70%. In the assay with RAW cells [3], the “RNA level of IL-1β” value was “decreased”, the “RNA level of IL-6” value is given as “decreased” and the “RNA level of TNF” value is reported as “decreased”. In addition, the iNOS expression result in assay [4] was “decreases in a dose-dependant manner”. In addition, in the assay with RAW cells [5], the “IL-1β protein in culture media” value was “decreases”, the “IL-6 protein in culture media” value is listed as “decreases” and the “TNFα protein in culture media” value is “decreases”.

Values taken from US20090270497A1, “Treatment of Non-Localized Inflammation with pan-HDAC Inhibitors” (PHARMACYCLICS, INC., priority 2008, published 2009).
